# Key:
# [1] = target: T1, angiotensin converting enzyme (Rattus norvegicus, UniProt P47820); assay: in vitro radioimmunoassay of angiotensin-II generation in rat plasma (converting enzyme inhibition); type: biochemical; conditions: 37° C., 30 minutes, angiotensin-II antibody trapping, read-out: IC50 (concentration at which a 50% inhibition of formation of angiotensin-II with respect to the control occurs) (converted)
# T1 construct: rat plasma containing angiotensinogen, renin and converting enzyme in physiological amounts; from tissue; host or cells: rat plasma
# T1 sequence (P47820 36-1238 limits assumed): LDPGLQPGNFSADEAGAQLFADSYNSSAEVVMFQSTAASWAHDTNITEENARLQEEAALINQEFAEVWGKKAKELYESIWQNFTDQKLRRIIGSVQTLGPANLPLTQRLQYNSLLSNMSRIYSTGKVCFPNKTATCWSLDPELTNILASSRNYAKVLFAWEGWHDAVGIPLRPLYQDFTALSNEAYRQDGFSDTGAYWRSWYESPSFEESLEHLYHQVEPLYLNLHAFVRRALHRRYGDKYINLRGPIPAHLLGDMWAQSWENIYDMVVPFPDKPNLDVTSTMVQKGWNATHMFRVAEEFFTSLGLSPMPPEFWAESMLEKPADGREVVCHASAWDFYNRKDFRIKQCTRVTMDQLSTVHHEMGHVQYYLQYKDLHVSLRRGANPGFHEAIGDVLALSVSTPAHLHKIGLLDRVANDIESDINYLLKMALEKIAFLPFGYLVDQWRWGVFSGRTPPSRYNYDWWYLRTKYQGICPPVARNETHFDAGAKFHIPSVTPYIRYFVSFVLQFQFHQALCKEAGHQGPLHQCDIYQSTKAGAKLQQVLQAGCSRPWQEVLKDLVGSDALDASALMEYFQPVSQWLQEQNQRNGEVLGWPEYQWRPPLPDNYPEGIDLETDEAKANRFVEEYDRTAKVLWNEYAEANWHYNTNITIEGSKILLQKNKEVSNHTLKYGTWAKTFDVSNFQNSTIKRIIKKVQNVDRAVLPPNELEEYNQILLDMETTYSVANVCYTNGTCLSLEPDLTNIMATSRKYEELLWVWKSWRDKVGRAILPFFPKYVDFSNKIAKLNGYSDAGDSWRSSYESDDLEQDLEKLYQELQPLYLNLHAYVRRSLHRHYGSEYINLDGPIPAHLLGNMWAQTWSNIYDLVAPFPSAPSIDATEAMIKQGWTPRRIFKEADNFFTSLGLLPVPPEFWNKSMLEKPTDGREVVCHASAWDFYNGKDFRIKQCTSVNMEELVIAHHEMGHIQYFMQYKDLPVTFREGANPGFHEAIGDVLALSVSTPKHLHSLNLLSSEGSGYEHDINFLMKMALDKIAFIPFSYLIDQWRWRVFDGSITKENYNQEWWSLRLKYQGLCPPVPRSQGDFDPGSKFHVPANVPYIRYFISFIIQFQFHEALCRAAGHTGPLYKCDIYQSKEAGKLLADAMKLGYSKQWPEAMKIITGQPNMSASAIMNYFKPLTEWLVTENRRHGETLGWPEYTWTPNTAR
# Description: The in vitro activity was determined by a radioimmuno-assay carried out using the methodology illustrated by K. Poulsen in J. Lab. […] More particularly, the in vitro activity was quantitatively evaluated by following the procedure described below:
# 50 μl of rat plasma containing angiotensinogen, renin and converting enzyme in physiological amounts, but deprived of endogenous angiotensin-I and angiotensin-II, and 10 μl of angiotensin-II antibody in dilution (1:120) were incubated in a tube at 37° C. for 30 minutes.
# During this enzymatic incubation in the absence of converting enzyme inhibitors, angiotensin-II which forms is then transformed into angiotensin-II by the action of converting enzyme and the angiotensin-II antibody which is present in the incubate, then captures and traps it, thus preserving angiotensin-II from the degrading action of plasmatic angiotensinases. Incubation was terminated by placing the tube at 0° C. and the amount of angiotensin-II formed and captured by the antibody was measured by radioimmunoassay (see K. Poulsen and J. Jorgensen J. Clin. Endocrinol. Metab. 39, 816-825 (1974). […]
# As said above, the amount of captured angiotensin-II, was determined by a radioimmunological assay. […] After centrifugation at 3000×g for 30 minutes the supernatant which contains the antibody-bound angiotensin-II, was decanted in counting tubes and each sample was then counted.
# For calculation of generated angiotensin-II from the amount of antibody-bound labeled angiotensin-II, an angiotensin-II standard curve was constructed using 50 μg of standard angiotensin-II (containing zero to 7.5 pg of angiotensin-II) and 10 μl of angiotensin-II antibody in dilution (1:120). […] By plotting the amounts of antibody-bound labeled angiotensin-II versus the known amounts of angiotensin-II initially present, a standard curve can be constructed, which allow a direct correlation between the amount of antibody-bound labeled angiotensin-II determined in each test and the amount of generated angiotensin-II.
# [2] = target: T2, angiotensin converting enzyme (Rattus norvegicus, UniProt P47820); assay: inhibition of the pressure increase induced by angiotensin-I in anesthetized normotensive rats; type: in vivo; conditions: normotensive rats anesthetized with nembuthal, angiotensin-I 0.1 μg/Kg, generally 15 minutes after test compound
# T2 construct: confirmed also in vivo by means of an experiment performed on normotensive rats; from tissue; host or cells: anesthetized normotensive rats (whole animal)
# T2 sequence (P47820 36-1313): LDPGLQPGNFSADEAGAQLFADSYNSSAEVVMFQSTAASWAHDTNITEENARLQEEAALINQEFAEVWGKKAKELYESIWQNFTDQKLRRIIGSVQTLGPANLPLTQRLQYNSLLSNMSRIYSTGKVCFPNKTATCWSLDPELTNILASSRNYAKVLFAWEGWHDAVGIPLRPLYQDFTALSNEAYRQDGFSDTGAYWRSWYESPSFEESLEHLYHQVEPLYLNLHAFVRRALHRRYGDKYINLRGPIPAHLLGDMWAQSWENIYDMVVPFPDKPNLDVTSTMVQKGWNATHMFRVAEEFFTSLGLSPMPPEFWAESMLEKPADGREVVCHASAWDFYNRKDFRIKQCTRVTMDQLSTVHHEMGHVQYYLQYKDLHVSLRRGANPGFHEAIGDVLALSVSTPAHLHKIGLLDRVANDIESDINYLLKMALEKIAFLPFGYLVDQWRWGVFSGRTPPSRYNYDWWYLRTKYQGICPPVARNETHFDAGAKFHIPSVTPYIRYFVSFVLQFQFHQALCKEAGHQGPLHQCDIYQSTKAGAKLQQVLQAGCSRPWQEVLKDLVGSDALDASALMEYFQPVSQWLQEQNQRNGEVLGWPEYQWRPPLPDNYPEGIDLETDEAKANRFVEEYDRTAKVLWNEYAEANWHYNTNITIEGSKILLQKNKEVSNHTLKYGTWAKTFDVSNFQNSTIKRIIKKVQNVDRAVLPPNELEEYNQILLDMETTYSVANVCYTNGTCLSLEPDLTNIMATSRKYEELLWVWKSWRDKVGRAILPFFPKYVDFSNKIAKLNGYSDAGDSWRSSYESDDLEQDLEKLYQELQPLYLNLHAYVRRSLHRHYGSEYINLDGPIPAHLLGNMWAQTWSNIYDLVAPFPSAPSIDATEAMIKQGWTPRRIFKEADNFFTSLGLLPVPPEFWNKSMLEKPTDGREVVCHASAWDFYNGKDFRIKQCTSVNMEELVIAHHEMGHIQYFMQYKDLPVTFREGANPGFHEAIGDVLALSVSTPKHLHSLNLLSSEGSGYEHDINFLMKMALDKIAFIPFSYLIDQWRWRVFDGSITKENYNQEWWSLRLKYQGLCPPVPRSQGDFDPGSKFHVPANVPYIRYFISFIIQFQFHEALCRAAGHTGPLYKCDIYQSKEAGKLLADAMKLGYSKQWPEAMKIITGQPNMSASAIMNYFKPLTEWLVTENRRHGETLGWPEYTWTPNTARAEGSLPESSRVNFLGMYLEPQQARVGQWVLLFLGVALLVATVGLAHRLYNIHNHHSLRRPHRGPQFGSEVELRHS
# Description: The experiment was carried out simultaneously with the above one and under the same conditions.
# The basal pressure value for each rat was recorded, then doses of 0.1 μg/Kg of body weight of angiotensin-I were injected through the jugular catheter. […] From these values and the basal ones the pressure increase induced by angiotensin-I in each rat was calculated.
# The percentages of inhibition of the pressure increase induced by angiotensin-I by different doses of test compounds were easily calculated and for each dose a single value, averaged on the three animals of the group was considered. By plotting the concentrations of test compound on a logarithmic scale versus the percent inhibitory effects, a linear correlation was established which allowed the calculation of the ED50, i.e. the dose of test compound which inhibits by 50% the pressure increase induced by angiotensin-I.
IC50 [1] [nM],"ED50 ([2]; rat, iv, 0.25 h, read-out: ED50 (dose which inhibits by 50% the pressure increase induced by angiotensin-I)) [mg/kg]","ED50 (dose which inhibits by 50% the pressure increase induced by angiotensin-I) ([2]; intravenous, 15 min) [mg/kg]",Compound
662,–,–,"O=C(SC1CCCC1C(=O)N1CCC[C@H]1C(=O)O)c1ccccc1 (single isomer, unassigned) [Example 5B, 1-[(2-benzoylthiocyclopentyl)carbonyl]-L-proline]"
863,–,–,"O=C(O)[C@@H]1CCCN1C(=O)C1CCCC1S (single isomer, unassigned) [Example 6A, 1-[(2-mercaptocyclopentyl)carbonyl]-L-proline]"
2340,2.3,–,"O=C(O)[C@@H]1CCCN1C(=O)C1CCCC1S (stereo partly drawn) [Example 2, 1-[(2-mercaptocyclopentyl)carbonyl]-L-proline]"
–,–,1.8,"O=C(O)[C@@H]1CCCN1C(=O)C1CCCC1S (stereo partly drawn) [Example 6B, 1-[(2-mercaptocyclopentyl)carbonyl]-L-proline]"
